Data on two compounds can be found in patent publication US6448294B1, “Biphenyl compounds and their use as oestrogenic agents” (Aventis Pharma S.A., priority 1996, dated 2002).

The assay concerns the target T1, recombinant human oestrogen receptor (Homo sapiens, UniProt P03372).
T1 construct: made in house; host or cells: SF9 insect cells (ATCC CRL1711), baculovirus
T1 sequence (P03372 1-595): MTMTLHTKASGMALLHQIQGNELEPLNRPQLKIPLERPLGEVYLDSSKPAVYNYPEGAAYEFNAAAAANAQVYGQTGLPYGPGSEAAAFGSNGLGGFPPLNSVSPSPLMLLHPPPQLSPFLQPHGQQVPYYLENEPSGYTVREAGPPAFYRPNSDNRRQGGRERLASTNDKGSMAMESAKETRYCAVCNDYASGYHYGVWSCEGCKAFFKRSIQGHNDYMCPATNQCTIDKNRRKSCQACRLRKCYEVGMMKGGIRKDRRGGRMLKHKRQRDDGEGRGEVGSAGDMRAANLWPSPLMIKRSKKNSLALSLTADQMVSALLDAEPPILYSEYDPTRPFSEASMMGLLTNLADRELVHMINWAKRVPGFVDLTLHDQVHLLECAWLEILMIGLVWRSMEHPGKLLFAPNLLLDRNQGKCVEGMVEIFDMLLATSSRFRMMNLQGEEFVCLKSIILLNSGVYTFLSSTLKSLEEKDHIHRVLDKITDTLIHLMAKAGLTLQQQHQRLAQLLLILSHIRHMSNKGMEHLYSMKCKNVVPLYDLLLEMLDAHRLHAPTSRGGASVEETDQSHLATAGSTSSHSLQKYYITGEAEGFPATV
As to the kind of experiment: Human oestrogen receptor (HOR) competitive binding with tritiated oestradiol, relative bond affinity (RBA). The note with it: RBA=100(CH)/(CX), incubation at 0° C. for 24 hours, cytosolic extract of SF9 cells. The source says: A cytosolic extract of SF9 cells containing the recombinant human oestrogen receptor is obtained by overexpression in an insect-Baculovirus cell system, according to the general methodology described by N. R. WEBB et al. (Journal of Methods in Cell and Molecular Biology, (1990) Vol.2 No. 4, 173-188) and the application of which is described for the expression of human hormonal receptors, for example the human glucocorticoid receptor (G. SRINIVASAN et al. Molecular Endocrinology (1990) vol 4 No. 2 209-216).
The BaculoGold Transfection Kit (PharMingen, reference 21000K) is used to generate the recombinant baculovirus containing the cDNA fragment described in the expression vector HEGO by L. TORA et al. (The EMBO Journal (1989) vol. 8 No. 7 1981-1986), containing the region coding for the wild-type human oestrogen receptor with a glycine in position 400. […]
The supernatant is incubated at 0° C. for 24 hours with a constant concentration (T) of tritiated oestradiol in the presence of increasing concentrations of either unlabelled oestradiol (0-1000×10^−9M), or of unlabelled product to be tested (0-25000×10^−9M). The concentration of bound tritiated oestradiol (B) is then measured in each incubate by the technique of adsorption with carbon dextran. […]
The relative bond affinity (RBA) of the test product is calculated by the equation: RBA=100(CH)/(CX).

As for `CN(C)CCOc1ccc(-c2c(-c3ccc(O)cc3)ccc3cc(O)ccc23)cc1` [Example 1, 5-[-4-[2-(Dimethylamino)ethoxy]phenyl] 6-(4-Hydroxyphenyl) 2-Naphthalenol], the “Relative bond affinity (RBA), HOR, oestradiol = 100, 24 hours” value came to 28. As for `Oc1ccc(-c2ccc3cc(O)ccc3c2Cl)cc1` [Example 2, 5-Chloro-6-(4-hydroxyphenyl)-2-naphthalenol], the “Relative bond affinity (RBA), HOR, oestradiol = 100, 24 hours” value stood at 49.
